Laboratory results as given in patent US10227344B2, “CK2 inhibitors, compositions and methods thereof” (Polaris Pharmaceuticals, Inc., priority 2016, dated 2019).

What was measured:
Type in all cases: cell-based
[1] = test system: LnCap; assay: Cancer cell panel, cell viability (resazurin): Prostate, LnCap; details: 72 hours, labelled drug combined with Example 3
Method: (§1) Cells were plated in 96-well plates and treated for 72 hours with a serially diluted CK2 inhibitor or anti-cancer drug or their combination. The suspension cell lines were treated right after plating, while the adherent cells were allowed to attach overnight prior to the start of the treatment.
(§2) Cell viability was determined by adding resazurin to cell cultures and measuring fluorescence with a plate reader. Relative cell viability was calculated by dividing the cell viability signal from a test sample by that of a non-treated control. […] Bliss Independence and Highest Single Agent models were used to determine if there is synergy, additivity or antagonism between the CK2 inhibitor and an anti-cancer drug.

[2] = test system: A2780; assay: Cancer cell panel, cell viability (resazurin): Ovarian, A2780; details: 72 hours, labelled drug combined with Example 3
Method: as §1, §2

[3] = test system: Caov-3; assay: Cancer cell panel, cell viability (resazurin): Ovarian, Caov-3; details: Caov-3 (Ovarian), 72 hours; labelled drug combined with Example 3
Method: as §1, §2

[4] = test system: HCT116; assay: Cancer cell panel, cell viability (resazurin): Colon, HCT116; details: 72 hours, labelled drug combined with Example 3
[5] = test system: LoVo; assay: Cancer cell panel, cell viability (resazurin): Colon, LoVo; details: 72 hours, labelled drug combined with Example 3
Method: as §1, §2

[6] = test system: DLD-1; assay: Cancer cell panel, cell viability (resazurin): Colon, DLD-1; details: DLD-1 (Colon), 72 hours; labelled drug combined with Example 3
Method: as §1, §2

[7] = test system: H460; assay: Cancer cell panel, cell viability (resazurin): NSCLC, H460; details: 72 hours, labelled drug combined with Example 3
Method: as §1, §2

[8] = test system: H1975; assay: Cancer cell panel, cell viability (resazurin): NSCLC, H1975; details: 72 hours, labelled drug combined with Example 3
[9] = test system: H23; assay: Cancer cell panel, cell viability (resazurin): NSCLC, H23; details: 72 hours, labelled drug combined with Example 3
[10] = test system: H2122; assay: Cancer cell panel, cell viability (resazurin): NSCLC, H2122; details: 72 hours, labelled drug combined with Example 3
[11] = test system: MDA-MB-453; assay: Cancer cell panel, cell viability (resazurin): Breast, MDA-MB-453; details: MDA-MB-453 (Breast), 72 hours; labelled drug combined with Example 3
[12] = test system: MDA-MB-231; assay: Cancer cell panel, cell viability (resazurin): Breast, MDA-MB-231; details: MDA-MB-231 (Breast), 72 hours; labelled drug combined with Example 3
[13] = test system: MDA-MB-157; assay: Cancer cell panel, cell viability (resazurin): Breast, MDA-MB-157; details: MDA-MB-157 (Breast), 72 hours; labelled drug combined with Example 3
[14] = test system: BT-474; assay: Cancer cell panel, cell viability (resazurin): Breast, BT-474; details: BT-474 (Breast), 72 hours; labelled drug combined with Example 3
[15] = test system: T47D; assay: Cancer cell panel, cell viability (resazurin): Breast, T47D; details: 72 hours, labelled drug combined with Example 3
[16] = test system: 786-O; assay: Cancer cell panel, cell viability (resazurin): Renal, 786-O; details: 786-O (Renal), 72 hours; labelled drug combined with Example 3
Method: as §1, §2

[17] = test system: ACHN; assay: Cancer cell panel, cell viability (resazurin): Renal, ACHN; details: 72 hours, labelled drug combined with Example 3
Method: as §1, §2

[18] = test system: Caki-1; assay: Cancer cell panel, cell viability (resazurin): Renal, Caki-1; details: Caki-1 (Renal), 72 hours; labelled drug combined with Example 3
[19] = test system: SK-MEL-24; assay: Cancer cell panel, cell viability (resazurin): Melanoma, SK-MEL-24; details: SK-MEL-24 (Melanoma), 72 hours; labelled drug combined with Example 3
Method: as §1, §2

[20] = test system: WM-115; assay: Cancer cell panel, cell viability (resazurin): Melanoma, WM-115; details: WM-115 (Melanoma), 72 hours; labelled drug combined with Example 3
[21] = test system: MeWO; assay: Cancer cell panel, cell viability (resazurin): Melanoma, MeWO; details: 72 hours, labelled drug combined with Example 3
[22] = test system: U266; assay: Cancer cell panel, cell viability (resazurin): multiple myeloma, U266; details: 72 hours, labelled drug combined with Example 3
Method: as §1, §2

[23] = test system: RPMI8226; assay: Cancer cell panel, cell viability (resazurin): multiple myeloma, RPMI8226; details: 72 hours, labelled drug combined with Example 3
[24] = test system: U87MG; assay: Cancer cell panel, cell viability (resazurin): Glioblastoma, U87MG; details: 72 hours, labelled drug combined with Example 3
[25] = test system: Ramos; assay: Cancer cell panel, cell viability (resazurin): Burkitt's Lymphoma, Ramos; details: 72 hours, labelled drug combined with Example 3
[26] = test system: Raji; assay: Cancer cell panel, cell viability (resazurin): Burkitt's Lymphoma, Raji; details: 72 hours, labelled drug combined with Example 3
[27] = test system: HL60; assay: Cancer cell panel, cell viability (resazurin): Leukemia, HL60; details: 72 hours, labelled drug combined with Example 3
[28] = test system: EOL-1; assay: Cancer cell panel, cell viability (resazurin): Leukemia, EOL-1; details: EOL-1 (Leukemia), 72 hours; labelled drug combined with Example 3
[29] = test system: MOLT4; assay: Cancer cell panel, cell viability (resazurin): Leukemia, MOLT4; details: 72 hours, labelled drug combined with Example 3
Method: as §1, §2

O=c1[nH]cc(F)c(=O)[nH]1 [Example 5FU, 5-FU]
synergy, additivity or antagonism of the combination of Example 3 with the anti-cancer drug [1]: + (Additive relative to each agent alone (CI = 0.9-1 by Bliss Independence Model and <0.9 by Highest Single Agent Model))
synergy, additivity or antagonism of the combination of Example 3 with the anti-cancer drug [2]: + + (Slight synergy relative to each agent alone (CI = 0.75-0.9 by Bliss Independence Model))
synergy, additivity or antagonism of the combination of Example 3 with the anti-cancer drug [3]: + (Additive relative to each agent alone (CI = 0.9-1 by Bliss Independence Model and <0.9 by Highest Single Agent Model))
synergy, additivity or antagonism of the combination of Example 3 with the anti-cancer drug [4]: + + (Slight synergy relative to each agent alone (CI = 0.75-0.9 by Bliss Independence Model))
synergy, additivity or antagonism of the combination of Example 3 with the anti-cancer drug [5]: + (Additive relative to each agent alone (CI = 0.9-1 by Bliss Independence Model and <0.9 by Highest Single Agent Model))
synergy, additivity or antagonism of the combination of Example 3 with the anti-cancer drug [6]: + (Additive relative to each agent alone (CI = 0.9-1 by Bliss Independence Model and <0.9 by Highest Single Agent Model))
synergy, additivity or antagonism of the combination of Example 3 with the anti-cancer drug [7]: + + + (Synergy relative to each agent alone (CI = 0.4-0.74 by Bliss Independence Model))
synergy, additivity or antagonism of the combination of Example 3 with the anti-cancer drug [8]: − − (Antagonistic relative to each agent alone (CI = 1.2-1.49 by Highest Single Agent Model))
synergy, additivity or antagonism of the combination of Example 3 with the anti-cancer drug [9]: + (Additive relative to each agent alone (CI = 0.9-1 by Bliss Independence Model and <0.9 by Highest Single Agent Model))
synergy, additivity or antagonism of the combination of Example 3 with the anti-cancer drug [10]: + (Additive relative to each agent alone (CI = 0.9-1 by Bliss Independence Model and <0.9 by Highest Single Agent Model))
synergy, additivity or antagonism of the combination of Example 3 with the anti-cancer drug [11]: + (Additive relative to each agent alone (CI = 0.9-1 by Bliss Independence Model and <0.9 by Highest Single Agent Model))
synergy, additivity or antagonism of the combination of Example 3 with the anti-cancer drug [12]: + (Additive relative to each agent alone (CI = 0.9-1 by Bliss Independence Model and <0.9 by Highest Single Agent Model))
synergy, additivity or antagonism of the combination of Example 3 with the anti-cancer drug [13]: + + (Slight synergy relative to each agent alone (CI = 0.75-0.9 by Bliss Independence Model))
synergy, additivity or antagonism of the combination of Example 3 with the anti-cancer drug [14]: + (Additive relative to each agent alone (CI = 0.9-1 by Bliss Independence Model and <0.9 by Highest Single Agent Model))
synergy, additivity or antagonism of the combination of Example 3 with the anti-cancer drug [15]: + (Additive relative to each agent alone (CI = 0.9-1 by Bliss Independence Model and <0.9 by Highest Single Agent Model))
synergy, additivity or antagonism of the combination of Example 3 with the anti-cancer drug [16]: + + + (Synergy relative to each agent alone (CI = 0.4-0.74 by Bliss Independence Model))
synergy, additivity or antagonism of the combination of Example 3 with the anti-cancer drug [17]: + (Additive relative to each agent alone (CI = 0.9-1 by Bliss Independence Model and <0.9 by Highest Single Agent Model))
synergy, additivity or antagonism of the combination of Example 3 with the anti-cancer drug [18]: + (Additive relative to each agent alone (CI = 0.9-1 by Bliss Independence Model and <0.9 by Highest Single Agent Model))
synergy, additivity or antagonism of the combination of Example 3 with the anti-cancer drug [19]: + (Additive relative to each agent alone (CI = 0.9-1 by Bliss Independence Model and <0.9 by Highest Single Agent Model))
synergy, additivity or antagonism of the combination of Example 3 with the anti-cancer drug [20]: + (Additive relative to each agent alone (CI = 0.9-1 by Bliss Independence Model and <0.9 by Highest Single Agent Model))
synergy, additivity or antagonism of the combination of Example 3 with the anti-cancer drug [21]: − (Slightly antagonistic relative to each agent alone (CI = 1.1-1.2 by Highest Single Agent Model))
synergy, additivity or antagonism of the combination of Example 3 with the anti-cancer drug [22]: + (Additive relative to each agent alone (CI = 0.9-1 by Bliss Independence Model and <0.9 by Highest Single Agent Model))
synergy, additivity or antagonism of the combination of Example 3 with the anti-cancer drug [23]: + (Additive relative to each agent alone (CI = 0.9-1 by Bliss Independence Model and <0.9 by Highest Single Agent Model))
synergy, additivity or antagonism of the combination of Example 3 with the anti-cancer drug [24]: + (Additive relative to each agent alone (CI = 0.9-1 by Bliss Independence Model and <0.9 by Highest Single Agent Model))
synergy, additivity or antagonism of the combination of Example 3 with the anti-cancer drug [25]: + + (Slight synergy relative to each agent alone (CI = 0.75-0.9 by Bliss Independence Model))
synergy, additivity or antagonism of the combination of Example 3 with the anti-cancer drug [26]: + (Additive relative to each agent alone (CI = 0.9-1 by Bliss Independence Model and <0.9 by Highest Single Agent Model))
synergy, additivity or antagonism of the combination of Example 3 with the anti-cancer drug [27]: + (Additive relative to each agent alone (CI = 0.9-1 by Bliss Independence Model and <0.9 by Highest Single Agent Model))
synergy, additivity or antagonism of the combination of Example 3 with the anti-cancer drug [28]: + (Additive relative to each agent alone (CI = 0.9-1 by Bliss Independence Model and <0.9 by Highest Single Agent Model))
synergy, additivity or antagonism of the combination of Example 3 with the anti-cancer drug [29]: + + (Slight synergy relative to each agent alone (CI = 0.75-0.9 by Bliss Independence Model))
